In test [1] the target is T1, α6β3β4α5 nAChR (Homo sapiens, UniProt P30926+Q15825).
T1 construct: expressed in transfected cells; host or cells: SH-EP1 human epithelial cells
As to the kind of experiment: [3H]-epibatidine binding to SH-EP1 α6β3β4α5 cell membranes (saturation and competition). The protocol:
Preparation of Cell Membranes for Receptor Binding. […] Combined homogenate (18 mL) was centrifuged at 40,000×g for 20 min (4° C.). The pellet was resuspended in 12 mL of ice-cold PBS and centrifuged again. The final pellet was resuspended in 10 mL of PBS.
[^3H]-Epibatidine Binding. For the saturation binding assay, 0.1 to 2.0 nM [^3H]-EPI (final concentrations; PerkinElmer Life Sciences, 56.2 Ci/mmol) was used to probe α6-comprising binding sites on the cell membranes. Competition binding assay was performed using 0.5 nM [^3H]-EPI (final concentration).
Each well contained 50 μL of test compound at the desired concentration, 50 μL of 4×[^3H]-EPI stock solution and 100 μL of membrane suspension and was performed in triplicate, at minimum. Samples were incubated for 2 hr at room temperature with gentle agitation. Samples defining total binding included buffer instead of test compound.
For 48-well plates, binding was terminated by immediate filtration onto GF/B filters (presoaked in 0.3% PEI) using a 48-sample, semi-auto harvester (Brandel, Gaithersburg, Md.), followed by washing 3 times with ice-cold buffer. Filters were transferred into scintillation vials filled with 3 mL of cocktail. Radioactivity was measured after 8-12 hr using a liquid scintillation analyzer (model Tri-Carb 2200CA, PerkinElmer Life Sciences Inc., Boston, Mass.). Data were expressed as disintegrations per minute (DPMs) and were converted to an absolute amount (fmoles) of bound [^3H]-EPI per mg of protein, or as a percent of control [^3H]-EPI binding (total—nonspecific).
For 96-well plates, incubation was terminated by dilution with ice-cold PBS and immediate filtration onto GF/B filter plate (presoaked in 0.3% PEI) using a 96-sample, semi-auto harvester (Brandel, Gaithersburg, Md.). After washing 3 times with ˜350 μl of ice-cold buffer, the filter plate was dried for 60 min in an oven at 49° C., bottom-sealed and each well filled with 40 μl of cocktail. […] Data were expressed as counts per minute (CPMs) and were converted to percent of control [^3H]-EPI binding (total—nonspecific).
Pseudo Hill slope (nH) was determined by fitting data to a sigmoidal dose-response equation (variable slope): % binding=Bottom+(Top−Bottom)/[1+10^(logIC50-X)·n], where X is the logarithm of inhibitor concentration and n is the slope.
A Scatchard analysis was also done for illustrative purposes, but not to determine specific binding parameters.

The target in test [2] is α6α4β2β3 nAChR (Homo sapiens, UniProt P17787+P43681+Q15825). As to the kind of experiment: 86Rb+ efflux assay, SH-EP1 α6α4β2β3 cells compared with α4β2 cells. The class given is cell-based.
Method: (§1) ^86Rb^+-flux Assay. […] After cells had adhered (generally overnight, but no sooner than 4 hr later), medium was removed and replaced with 250 μl per well of complete medium supplemented with ˜300,000 cpm of ^86Rb^+ (NEN; counted at 40% efficiency using Cerenkov counting and the Packard TriCarb 1900 Liquid Scintillation Analyzer).
(§2) Briefly, after aspiration of the bulk of ^86Rb^+ loading medium from each well of the “cell plate,” each well containing cells was rinsed three times with 2 ml of fresh ^86 Rb^+ efflux buffer (130 mM NaCl, 5.4 mM KCl, 2 mM CaCl2, 5 mM glucose, 50 mM HEPES, pH 7.4) to remove extracellular ^86Rb^+. Following removal of residual rinse buffer by aspiration, the flip-plate technique was used again to simultaneously introduce fresh efflux buffer containing drugs of choice at indicated final concentrations from a 24-well “efflux/drug plate” into the wells of the cell plate. […]
(§3) Intrinsic agonist activity of test drugs was ascertained in samples containing that drug only at different concentrations and was normalized, after subtraction of non-specific efflux, to specific efflux assessed using carbamylcholine and efflux-buffer-only controls. Antagonist activity was determined for test drugs at different concentrations in the presence of 1 mM carbamylcholine and was normalized, after subtraction of non-specific efflux, to specific efflux ascertained using carbamylcholine and efflux buffer-only controls. ^86Rb^+ in both cell plates and efflux/drug plates was periodically determined to ensure material balance (i.e., that the sum of ^86Rb^+ released into the efflux/drug plate and ^86Rb^+ remaining in the cell plate were the same for each well) and to determine efficiency of ^86Rb^+ loading (the percentage of applied ^86Rb^+ actually loaded into cells).
(§4) In some cases, biphasic dose-ion flux response curves were evident and were fit to a two-phase Hill equation from which EC50 and Hill coefficients for the rising, agonist phase, and IC50 and Hill coefficients for the falling, self-inhibitory phase could be determined (Prism).
For test [3], the target named is T2, α4β2 nAChR (Rattus norvegicus, UniProt P09483+P12390).
T2 construct: Rat Brain; from tissue
As to the kind of experiment: biochemical. The class given is binding.

Test [4] concerns the target T3, α7 nAChR (Rattus norvegicus, UniProt Q05941).
T3 construct: Rat brain; from tissue
As to the kind of experiment: biochemical. The conditions noted are these: read-out: Ki α7 [3H]-MLA Binding.

Test [5] has as its target T2, α4β2 nAChR. The conditions noted are these: Table 1; from Briggs et al, 1997; read-out: Ki α4β2 [3H]-NIC Binding; cited from earlier work.
For test [6], the target named is T3, α7 nAChR. The conditions noted are these: Table 1; from Briggs et al, 1997; read-out: Ki α7 [3H]-MLA Binding; cited from earlier work.
Test [7] has as its target T1, α6β3β4α5 nAChR. Nature of the test: 86Rb+ efflux assay, SH-EP1 α6β3β4α5 cells. The class given is cell-based. The conditions noted are these: SH-EP1 cells expressing α6β3β4α5-nAChR, FIG. 2. How it is done: ^86Rb^+-flux Assay. Cells were harvested at confluence from 100-mm plates by mild trypsinization (Irvine Scientific, Santa Ana, Calif.) before being resuspended in complete medium and evenly seeded at a density of one confluent 100-mm plate per 24-well plate (Falcon; ˜100-125 μg of total cell protein per well in a 500 μl volume). After cells had adhered (generally overnight, but no sooner than 4 hr later), medium was removed and replaced with 250 μl per well of complete medium supplemented with ˜300,000 cpm of ^86Rb^+ (NEN; counted at 40% efficiency using Cerenkov counting and the Packard TriCarb 1900 Liquid Scintillation Analyzer).
After at least 4 hr and typically overnight, ^86Rb^+ efflux was measured using the “flip-plate” technique (Lukas et al., 2002). […]
For each experiment, normalization and quality control measurements were made of total ^86Rb^+ efflux in samples containing a fully efficacious dose of 1 mM carbamylcholine and of non-specific ^86Rb^+ efflux measured using either samples containing 1 mM carbamylcholine plus 100 μM mecamylamine, which gave full block of agonist-induced or spontaneous, nAChR-mediated ion flux, or samples containing efflux buffer alone to assess any contributions due to spontaneous nAChR-mediated ion flux. […] Specific ^86Rb^+ efflux was determined in absolute terms and as a percentage of loaded ^86Rb^+. […]

In a further test the test system is DA release. The settings on record: Bencherif, et al., 1998; cited from earlier work.
The target in test [8] is α6α4β2β3 nAChR (Homo sapiens, UniProt P17787+P43681+Q15825, P452S). As to the kind of experiment: 86Rb+ efflux assay, SH-EP1 α6α4β2β3 cells compared with α4β2 cells. The format is cell-based.
Method: as §1, §2, §3, §4
The mark [9] stands for this setting: SH-EP1 cells, Table 1, read-out: Ki α6β3β4α5 [3H]-EPI Binding.
[10] abbreviates: SH-EP1 α6β3β4α5 membranes, read-out: Ki in competition with [3H]-EPI (rank order of potency).
[11] abbreviates: Ki in competition with [3H]-EPI (rank order of potency).
Where [12] appears, read: read-out: Ki α6β3β4α5 [3H]-EPI Binding.
Where [13] appears, read: read-out: Ki α4β2 [3H]-NIC Binding.

We go through 17 molecules from patent US20090068642A1, “Composition and pharmacology of novel alpha6-containing nicotinic acetylcholine receptors” (priority 2003, published 2009).

Broadly, the Ki is the dissociation constant of the complex between target and ligand, obtained from inhibition or displacement.

“And” between values parts separate entries of the source, which are not always exact repeats. Equal entries are not always repeated. “Also recorded” adds a separate entry of the source. Where two headings read alike, the source gives them in different places. Where only a bound is given, the exact number is not on record here.

T1 sequence (Q15825 26-494): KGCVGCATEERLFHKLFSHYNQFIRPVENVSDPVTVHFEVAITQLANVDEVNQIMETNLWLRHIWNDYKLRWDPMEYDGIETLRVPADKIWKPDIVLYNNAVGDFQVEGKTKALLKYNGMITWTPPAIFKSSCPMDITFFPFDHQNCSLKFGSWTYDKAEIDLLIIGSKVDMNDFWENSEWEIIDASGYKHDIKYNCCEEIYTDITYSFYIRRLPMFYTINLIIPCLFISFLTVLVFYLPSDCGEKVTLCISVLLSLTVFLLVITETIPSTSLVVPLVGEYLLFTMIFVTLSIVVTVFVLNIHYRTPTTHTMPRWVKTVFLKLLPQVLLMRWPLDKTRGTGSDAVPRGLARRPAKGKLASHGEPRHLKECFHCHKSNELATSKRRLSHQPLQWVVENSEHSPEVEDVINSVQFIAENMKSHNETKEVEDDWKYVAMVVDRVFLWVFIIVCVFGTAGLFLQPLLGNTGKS
T1 sequence (Q05901 25-458 partner limits assumed): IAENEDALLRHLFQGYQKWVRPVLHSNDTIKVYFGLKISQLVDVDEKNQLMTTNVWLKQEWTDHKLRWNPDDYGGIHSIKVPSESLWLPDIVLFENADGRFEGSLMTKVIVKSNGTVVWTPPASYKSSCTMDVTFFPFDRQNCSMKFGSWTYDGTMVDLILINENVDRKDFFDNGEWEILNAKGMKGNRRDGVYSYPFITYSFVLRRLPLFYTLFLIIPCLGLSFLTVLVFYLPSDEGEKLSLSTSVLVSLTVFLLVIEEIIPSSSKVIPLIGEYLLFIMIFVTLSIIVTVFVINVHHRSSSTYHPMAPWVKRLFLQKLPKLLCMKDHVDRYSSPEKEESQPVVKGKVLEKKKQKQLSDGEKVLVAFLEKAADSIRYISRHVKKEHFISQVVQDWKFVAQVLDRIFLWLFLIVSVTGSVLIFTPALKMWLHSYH
T1 sequence (P30926 22-498): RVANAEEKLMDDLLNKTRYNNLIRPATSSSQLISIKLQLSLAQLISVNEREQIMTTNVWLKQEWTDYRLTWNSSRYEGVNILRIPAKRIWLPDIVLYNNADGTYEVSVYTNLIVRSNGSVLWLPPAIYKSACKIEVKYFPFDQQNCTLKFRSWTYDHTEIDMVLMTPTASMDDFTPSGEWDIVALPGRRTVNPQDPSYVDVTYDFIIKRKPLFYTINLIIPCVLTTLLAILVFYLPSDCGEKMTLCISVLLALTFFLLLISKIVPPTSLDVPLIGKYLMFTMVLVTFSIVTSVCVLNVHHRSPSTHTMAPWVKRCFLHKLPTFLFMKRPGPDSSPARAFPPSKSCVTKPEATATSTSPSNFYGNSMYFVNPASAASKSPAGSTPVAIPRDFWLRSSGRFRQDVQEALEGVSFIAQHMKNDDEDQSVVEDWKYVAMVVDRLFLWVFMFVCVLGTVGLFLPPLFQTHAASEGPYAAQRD
T1 sequence (P30532 23-468 partner): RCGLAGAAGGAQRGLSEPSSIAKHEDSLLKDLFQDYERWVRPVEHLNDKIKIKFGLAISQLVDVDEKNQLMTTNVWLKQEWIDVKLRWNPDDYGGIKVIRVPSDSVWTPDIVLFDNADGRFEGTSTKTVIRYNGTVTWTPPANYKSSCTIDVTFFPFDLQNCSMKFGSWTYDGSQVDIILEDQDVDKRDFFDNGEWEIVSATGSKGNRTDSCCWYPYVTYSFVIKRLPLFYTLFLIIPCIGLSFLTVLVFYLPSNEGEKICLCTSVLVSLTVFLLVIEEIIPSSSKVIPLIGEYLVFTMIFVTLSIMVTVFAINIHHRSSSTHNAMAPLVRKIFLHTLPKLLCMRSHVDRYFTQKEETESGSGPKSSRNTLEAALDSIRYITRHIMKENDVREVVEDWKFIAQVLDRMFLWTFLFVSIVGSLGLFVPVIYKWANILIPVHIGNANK
T3 sequence (Q05941 23-502): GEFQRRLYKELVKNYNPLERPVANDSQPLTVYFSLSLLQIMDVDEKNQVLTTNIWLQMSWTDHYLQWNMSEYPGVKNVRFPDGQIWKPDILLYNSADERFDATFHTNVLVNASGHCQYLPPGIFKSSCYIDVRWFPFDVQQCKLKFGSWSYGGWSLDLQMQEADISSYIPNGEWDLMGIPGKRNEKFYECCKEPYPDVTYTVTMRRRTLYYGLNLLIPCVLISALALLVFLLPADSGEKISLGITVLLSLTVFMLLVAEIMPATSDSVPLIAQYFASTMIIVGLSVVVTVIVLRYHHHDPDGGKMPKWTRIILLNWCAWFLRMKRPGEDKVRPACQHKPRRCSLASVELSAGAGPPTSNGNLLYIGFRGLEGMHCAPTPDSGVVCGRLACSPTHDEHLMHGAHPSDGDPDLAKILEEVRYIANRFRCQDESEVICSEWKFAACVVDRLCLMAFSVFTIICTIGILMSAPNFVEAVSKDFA
T2 sequence (P12390 25-500): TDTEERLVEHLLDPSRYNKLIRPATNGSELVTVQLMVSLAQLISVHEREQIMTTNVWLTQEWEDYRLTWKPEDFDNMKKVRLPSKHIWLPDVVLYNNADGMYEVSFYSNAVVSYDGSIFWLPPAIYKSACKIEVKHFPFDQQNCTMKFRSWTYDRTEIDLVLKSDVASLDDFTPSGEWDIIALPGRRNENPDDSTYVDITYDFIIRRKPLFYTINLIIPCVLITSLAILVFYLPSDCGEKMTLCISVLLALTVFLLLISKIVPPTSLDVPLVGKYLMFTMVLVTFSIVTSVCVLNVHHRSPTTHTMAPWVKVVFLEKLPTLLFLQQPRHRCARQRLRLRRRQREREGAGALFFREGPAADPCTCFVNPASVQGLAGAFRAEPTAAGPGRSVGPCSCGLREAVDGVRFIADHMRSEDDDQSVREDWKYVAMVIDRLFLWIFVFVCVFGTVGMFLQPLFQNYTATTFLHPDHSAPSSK
T2 sequence (P09483 31-630): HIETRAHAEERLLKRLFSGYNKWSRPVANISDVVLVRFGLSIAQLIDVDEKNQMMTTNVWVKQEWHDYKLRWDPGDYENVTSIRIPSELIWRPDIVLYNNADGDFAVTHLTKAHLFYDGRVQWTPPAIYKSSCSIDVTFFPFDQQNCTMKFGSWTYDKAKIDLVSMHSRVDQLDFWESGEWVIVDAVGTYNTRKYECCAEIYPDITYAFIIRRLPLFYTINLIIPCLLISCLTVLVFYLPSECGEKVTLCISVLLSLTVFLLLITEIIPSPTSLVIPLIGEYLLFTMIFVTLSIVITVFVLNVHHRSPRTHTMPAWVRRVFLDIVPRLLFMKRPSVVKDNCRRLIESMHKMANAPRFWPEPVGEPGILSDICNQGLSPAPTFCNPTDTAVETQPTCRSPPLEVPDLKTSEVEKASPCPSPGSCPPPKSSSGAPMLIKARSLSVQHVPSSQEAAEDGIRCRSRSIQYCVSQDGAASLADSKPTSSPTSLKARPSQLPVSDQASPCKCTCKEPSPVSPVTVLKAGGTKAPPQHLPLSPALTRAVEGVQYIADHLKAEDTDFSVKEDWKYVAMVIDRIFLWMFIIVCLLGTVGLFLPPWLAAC
Sequence of α6α4β2β3 nAChR (Homo sapiens, UniProt P17787+P43681+Q15825, P452S) (P43681 27-627 P452S): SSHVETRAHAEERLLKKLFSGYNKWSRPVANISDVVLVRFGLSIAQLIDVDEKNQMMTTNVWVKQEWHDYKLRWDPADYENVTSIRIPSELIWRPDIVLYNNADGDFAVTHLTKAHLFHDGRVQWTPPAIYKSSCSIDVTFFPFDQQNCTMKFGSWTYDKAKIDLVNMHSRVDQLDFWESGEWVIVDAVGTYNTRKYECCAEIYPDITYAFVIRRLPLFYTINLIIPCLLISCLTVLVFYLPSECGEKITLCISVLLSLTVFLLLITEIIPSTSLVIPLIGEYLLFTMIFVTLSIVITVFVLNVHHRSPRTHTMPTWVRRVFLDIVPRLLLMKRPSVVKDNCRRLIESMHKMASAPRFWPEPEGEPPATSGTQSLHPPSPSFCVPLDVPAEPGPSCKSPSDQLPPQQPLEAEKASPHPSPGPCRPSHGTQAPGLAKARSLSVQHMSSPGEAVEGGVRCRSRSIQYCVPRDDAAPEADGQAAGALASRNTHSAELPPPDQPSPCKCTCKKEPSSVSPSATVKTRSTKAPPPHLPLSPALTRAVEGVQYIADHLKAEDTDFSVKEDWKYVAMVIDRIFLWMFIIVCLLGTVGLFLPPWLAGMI
Sequence of α6α4β2β3 nAChR (Homo sapiens, UniProt P17787+P43681+Q15825, P452S) (Q15825 26-494): as the sequence (Q15825 26-494) above
Sequence of α6α4β2β3 nAChR (Homo sapiens, UniProt P17787+P43681+Q15825, P452S) (P17787 26-502): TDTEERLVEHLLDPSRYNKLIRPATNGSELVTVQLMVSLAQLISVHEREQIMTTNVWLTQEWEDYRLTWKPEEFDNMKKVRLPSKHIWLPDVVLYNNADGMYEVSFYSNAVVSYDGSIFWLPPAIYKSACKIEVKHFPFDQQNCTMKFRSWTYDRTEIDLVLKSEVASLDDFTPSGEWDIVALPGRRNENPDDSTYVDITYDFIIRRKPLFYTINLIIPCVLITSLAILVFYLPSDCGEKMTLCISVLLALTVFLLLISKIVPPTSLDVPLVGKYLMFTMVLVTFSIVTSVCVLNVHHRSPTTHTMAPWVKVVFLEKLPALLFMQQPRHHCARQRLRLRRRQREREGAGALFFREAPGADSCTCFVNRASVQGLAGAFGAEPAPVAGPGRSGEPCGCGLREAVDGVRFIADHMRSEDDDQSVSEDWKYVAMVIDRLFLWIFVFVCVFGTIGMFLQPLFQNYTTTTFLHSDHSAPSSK
Sequence of α6α4β2β3 nAChR (Homo sapiens, UniProt P17787+P43681+Q15825, P452S) (Q05901 22-458, further chain): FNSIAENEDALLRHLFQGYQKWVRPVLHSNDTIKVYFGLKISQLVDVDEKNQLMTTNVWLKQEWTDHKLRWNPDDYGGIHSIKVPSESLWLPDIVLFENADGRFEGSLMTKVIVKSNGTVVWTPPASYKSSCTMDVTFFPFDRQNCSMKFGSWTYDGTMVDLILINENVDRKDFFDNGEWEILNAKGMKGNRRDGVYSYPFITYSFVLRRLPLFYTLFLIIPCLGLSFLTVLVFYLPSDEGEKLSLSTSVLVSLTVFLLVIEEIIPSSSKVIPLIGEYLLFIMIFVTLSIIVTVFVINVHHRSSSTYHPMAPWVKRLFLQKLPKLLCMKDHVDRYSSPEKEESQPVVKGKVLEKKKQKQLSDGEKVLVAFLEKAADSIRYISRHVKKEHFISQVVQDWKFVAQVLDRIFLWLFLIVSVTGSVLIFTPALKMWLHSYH

On to `CN1[C@@H](CC(=O)c2ccccc2)CCC[C@H]1C[C@H](O)c1ccccc1` [(-)-LOB, lobeline], for which the inhibition constant Ki at α6β3β4α5 nAChR [1] (setting [9]) was 7 nM; at α6β3β4α5 nAChR [1] (setting [10]) it was 7 to 9 nM and 6 nM.
Regarding `CC(=O)O[C@H]1C[C@@H]2CC[C@@H]3[C@H](CC[C@@]4(C)[C@H]3C[C@H]([N+]3(C)CCCCC3)[C@@H]4OC(C)=O)[C@@]2(C)C[C@@H]1[N+]1(C)CCCCC1` [pancuronium], the “Sensitivity of α6α4β2β3-nAChR to functional blockade relative to α4β2-nAChR” value at α6α4β2β3 nAChR [2] is on record as “lower sensitivity”.
Turning to `C#Cc1cncc([C@@H]2CCCN2C)c1` [SIB-1508Y, altinicline], the inhibition constant Ki was 900 to 3500 nM and 500 to 2000 nM on α6β3β4α5 nAChR [1] (setting [11]); 950 nM at α6β3β4α5 nAChR [1] (setting [9]); 200 nM at α4β2 nAChR [3].
Consider `CO[C@H]1CC=C2CCN3CCC4=C(CC(=O)OC4)[C@]23C1` [DHβE, dihydro-β-erythoidine], for which the Ki on α6β3β4α5 nAChR [1] (setting [12]) was > 10000 nM; at α4β2 nAChR [3] (setting [13]) it was 26.4 nM; at α7 nAChR [4] it was 5000 nM.
For `CCN1C[C@]2(COC(=O)c3ccccc3N3C(=O)C[C@H](C)C3=O)CC[C@H](OC)[C@]34C5C[C@@H]6[C@@H](OC)C[C@@](O)(C5[C@H]6OC(C)=O)[C@](O)(C13)[C@@H](OC)C24` (stereo partly drawn) [NUD, nudikauline], the inhibition constant Ki on α6β3β4α5 nAChR [1] (setting [9]) amounted to 370 nM.
Regarding `CCN1C[C@]2(COC(=O)c3ccccc3N3C(=O)C[C@H](C)C3=O)CC[C@H](OC)[C@@]34[C@@H]5C[C@H]6[C@H](OC)[C@@H]5[C@](O)(C[C@@H]6OC)[C@@](O)([C@@H](OC)[C@H]23)[C@@H]14` [MLA, methyllycaconitine], the inhibitory constant (Ki) on α6β3β4α5 nAChR [1] (setting [9]) is 160 nM; on α6β3β4α5 nAChR [1] (setting [10]) it was 150 to 165 nM and 110 to 160 nM.
Regarding `COc1ccc(/C=C2\CCCN=C2c2cccnc2)c(OC)c1` [GTS-21, (2.4)-dimethoxybenzylidene anabaseine], the Ki at α6β3β4α5 nAChR [1] (setting [11]) is 900 to 3500 nM and 500 to 2000 nM; on α6β3β4α5 nAChR [1] (setting [9]), 1400 nM; at α4β2 nAChR [5], 20 nM; at α7 nAChR [6] it was 2000 nM.
Take `C[N+](C)(C)CCOC(N)=O` [CAR, carbachol]: the inhibition constant (Ki) at α6β3β4α5 nAChR [1] (setting [9]) was 3500 nM; at α6β3β4α5 nAChR [1] (setting [10]), 900 to 3500 nM and 500 to 2000 nM. Also, the “86Rb+ efflux response (agonist)” value at α6β3β4α5 nAChR [7] is “activate ^86Rb^+ efflux responses”.
At α6β3β4α5 nAChR [1] (Ki α6β3β4α5 [3H]-EPI Binding), `Clc1ccc(C2CC3CCC2N3)cn1` (stereo not drawn) [EPI, epibatidine] displayed a Ki of 0.07 nM.
With `c1cncc(C2CC3CCN2CC3)c1` (racemic) [TC-2429, (+/−)-2-(−3-pyridinyl)-1-azabicyclo[2.2.2]octane], the inhibition constant (Ki) at α6β3β4α5 nAChR [1] (setting [10]) came out at 2 nM. Further, the DA release result in the test with DA release was “robust DA release”.
For the molecule `CNC(=O)OCC[N+](C)(C)C` [MCC, methylcarbamylcholine], the Ki on α6β3β4α5 nAChR [1] (setting [9]) came to 970 nM.
For `c1cncc(OC[C@@H]2CCN2)c1` [A-85380, 3-[2(S)-azetidinylmethoxy]pyridine], the Ki on α6β3β4α5 nAChR [1] (setting [11]) is 7 to 9 nM and 6 nM; at α6β3β4α5 nAChR [1] (setting [9]), 9 nM; at α4β2 nAChR [3], 3 nM; at α7 nAChR [4] (Rat brain, Table 1), 1200 nM.
Consider `CNC1(C)C2CCC(C2)C1(C)C` (stereo not drawn) [mecamylamine], for which the inhibition constant Ki at α6β3β4α5 nAChR [1] (read-out: Ki in competition with [3H]-EPI (rank order of potency)) is > 10000 nM.
α-bungarotoxin [α-Btx]: the inhibition constant Ki at α6β3β4α5 nAChR [1] (setting [12]) and at α4β2 nAChR [3] (setting [13]) was > 10000 nM each time.
As to `O=c1cccc2n1C[C@@H]1CNC[C@H]2C1` [(-)-CYT, cytisine], the Ki stood at 150 nM on α6β3β4α5 nAChR [1] (setting [12]), 1 nM on α4β2 nAChR [3] (setting [13]) and 1160 nM on α7 nAChR [4]. Moreover, the “Agonist efficacy/potency at α6α4β2β3 nAChR relative to α4β2-nAChR” value at α6α4β2β3 nAChR [8] is “higher efficacy and agonist potency; also recorded: much greater efficacy”.
As to `Cc1cc([C@@H]2CCCN2C)on1` [ABT-418, (S)-3-methyl-5-(1-methyl-2-pyrrolidinyl)isoxazole], the inhibitory constant (Ki) is 900 to 3500 nM and 500 to 2000 nM on α6β3β4α5 nAChR [1] (setting [11]); 850 nM on α6β3β4α5 nAChR [1] (setting [9]); 39 nM at α4β2 nAChR [3] (Rat brain, Table 1, read-out: Ki α4β2 [3H]-NIC Binding).
On to `CN1CCCC1c1cccnc1` (single isomer, unassigned; (-)) [(-)-NIC, nicotine], for which the inhibitory constant (Ki) is 150 to 165 nM and 110 to 160 nM at α6β3β4α5 nAChR [1] (setting [11]); 160 nM on α6β3β4α5 nAChR [1] (Ki α6β3β4α5 [3H]-EPI Binding).
